Laboratory results as given in patent US8822528B2, “Monensin derivatives for the treatment and prevention of protozoal infections” (Merial Limited, priority 2010, dated 2014).

Assays:
Eimeria tenella = experiment: In vitro efficacy against Eimeria tenella in infected MDBK cell culture (schizonts/merozoites counted microscopically); assay type: cell-based; design: Activity in inhibiting development of Eimeria tenella in vitro (schizonts and merozoites) / Presence of schizonts/merozoites (microscopic observation, picture): dose or concentration left out as unconfirmed; conditions: for Inhibition of development of Eimeria tenella in cell culture (formation of merozoites): five different concentrations in the presence of the parasite (FIG. 30); for Activity in inhibiting development of Eimeria tenella in vitro (schizonts and merozoites) / Presence of schizonts/merozoites (microscopic observation, picture): second series; for Activity in inhibiting development of Eimeria tenella in vitro (schizonts and merozoites): one concentration of 3.125 (FIG. 30A); for Presence of schizonts/merozoites (microscopic observation, picture): 3.125, FIG. 30B/30C; for Activity towards the parasite Eimeria tenella (summary): summary of in vitro testing of fifteen polyether ionophores; for Development of Eimeria tenella in vitro / Inhibition of the parasite Eimeria tenella: third series; for Development of Eimeria tenella in vitro: at very low concentrations (<0.39 μg/μL) (FIG. 31B); for Inhibition of the parasite Eimeria tenella: at low concentrations (FIG. 31B)
Description: Once the IC50 concentration was determined, the test was performed on infected cells. The working concentration chosen was always lower than IC50.
After having cultured cells at 40° C. in each well of a 96-well plate, they were treated with a specific concentration (<IC50, allowing the inhibition of parasites in over 50% of cells) of polyether ionophore. Then, the sporozoites of Eimeria tenella were excysted and the cells infected with purified sporozoites. After incubation for 24 hrs at 40° C., the medium was changed. The efficiency of molecules was evaluated microscopically after 40 hrs and 48 hrs. The release of merozoites was noted (FIG. 30B). Thus, in explicit cases, the merozoites released were counted; in ambiguous cases, the quantitative PCR ([…]) will be used. For each test, a positive control of treatment (with monensin 1a) and a positive control of infection was made.

MDBK cells = experiment: Cytotoxicity testing / IC50 determination on MDBK cells (Cell Titer, tetrazolium to formazan, 96-well); assay type: cell-based, Bovine; conditions: summary statement
Description: Cytotoxicity testing. For the prevention and the treatment, a compound is considered effective when it is non toxic or its toxicity is low for host cells but high for the target (parasite). For cytotoxicity testing and determination of the IC50, the in vitro model is one of the best methods, enabling this type of testing to be carried out directly on cells alone without fear of fatal consequences as in vivo. The IC50 is the maximum concentration at which at least 50% of cells survive following a treatment. All concentrations above it are excluded for the test; values below it, on the other hand, can be tested in order to determine the concentration that will totally or partially eliminate the parasite or inhibit its development. This test consists in testing several concentrations on cell culture in 96-well plate; the concentrations are tested in duplicate, and the cytotoxicity of the molecules is evaluated with special kits based on an oxidation-reduction reaction at the cell-machinery level (mitochondria).
As in the MTT kit (Promega), the reagent used is the tetrazolium salt MTT (3-[4,5-dimethylthiazol-2-yl]-2,5-diphenyltetrazolium bromide). The tetrazolium ring that it contains is reduced to formazan by the mitochondrial succinate dehydrogenase of active living cells. The color of the medium thus changes from yellow to purplish-blue. The intensity of this color is proportional to the number of living cells present at the time of testing but also to their metabolic activity. The percentage of living cells is determined from the ratio between the absorbance for the test well and the absorbance for the control well (cells alone).
Initially, the inhibitory concentration IC50 was determined. It corresponded to the concentration of polyether ionophore allowing the viability of 50% of cells. Bovine cells were cultured and incubated for 24 hrs at 40° C. in the wells of a 96-well plate. Then, a fixed concentration ([…]) of polyether ionophore was added to each well. The cells were incubated at 40° C. for 24 hrs. 20 μL, of “Cell Titer” was added to each well. The cells were again incubated for 30 min to 1 hour at 40° C. before the plate was read in a plate reader at a wavelength of 490 nm (maximum absorption of the formazan). This reading determined the optical density (OD) of each well and allowed access to the percentage of inhibition. I50=(ODtreated/ODcontrol)×100 […]=[1−(ODtreated/ODcontrol)]×100.
FIG. 26 represents a 96-well plate after adding “Cell Titer”. The intensity of colours depends on the toxicity of the polyether ionophore tested. Increasing color intensity corresponded to increasing number of living cells. […]

`CC[C@@]1([C@@H]2O[C@@H]([C@H]3O[C@@](O)(CO)[C@H](C)C[C@@H]3C)C[C@@H]2C)CC[C@H]([C@]2(C)CC[C@]3(C[C@H](O)[C@@H](C)[C@@H]([C@@H](C)[C@@H](OC)[C@H](C)C(=O)O)O3)O2)O1` [Compound 1a, Monensin] was tested, and the “Inhibition of development of Eimeria tenella in cell culture (formation of merozoites)” value (“Inhibition … (formation of merozoites)” below) (Eimeria tenella; first series) was “inhibited the formation of merozoites at very low concentrations”.

For `CCC1(C2OC(C3OC(O)(CO)C(C)CC3C)CC2C)CCC(C2(C)CCC3(CC(O)C(C)C(C(C)C(OC)C(C)C(=O)NCc4ccccc4)O3)O2)O1` (stereo not drawn) [Compound 3a, 1-benzylamidomonensine], the “Inhibition … (formation of merozoites)” value (Eimeria tenella; first series) was “did not appear to significantly inhibit”.

For `CCC1(C2OC(C3OC(O)(CO)C(C)CC3C)CC2C)CCC(C2(C)CCC3(CC(O)C(C)C(C(C)C(OC)C(C)C(=O)NCc4ccc(C(=O)OC)cc4)O3)O2)O1` (stereo not drawn) [Compound 3b, 1-(4-methylbenzoate)methylene Amidomonensine], the “Inhibition … (formation of merozoites)” value (Eimeria tenella; first series) was “did not appear to significantly inhibit”.

In the case of `CCC1(C2OC(C3OC(O)(CO)C(C)CC3C)CC2C)CCC(C2(C)CCC3(CC(O)C(C)C(C(C)C(OC)C(C)C(=O)NCc4cccc(C(=O)OC)c4)O3)O2)O1` (stereo not drawn) [Compound 3c, 1-(3-methylbenzoate)methylene Amidomonensin], the “Activity in inhibiting development of Eimeria tenella in vitro (schizonts and merozoites)” value (“Activity in inhibiting development” for short) (Eimeria tenella) is reported as “no significant activity”.

For `CCC1(C2OC(C3OC(O)(CO)C(C)CC3C)CC2C)CCC(C2(C)CCC3(CC(O)C(C)C(C(C)C(OC)C(C)C(=O)NC(C(=O)OC)c4ccc(F)cc4)O3)O2)O1` (stereo not drawn) [Compound 4c, Methyl 2′-(monensinamido)-2′-(4′-fluorophenyl)acetate], the “Activity in inhibiting development” value (Eimeria tenella) was “no significant activity”.

For `CCC1(C2OC(C3OC(O)(CO)C(C)CC3C)CC2C)CCC(C2(C)CCC3(CC(O)C(C)C(C(C)C(OC)C(C)C(=O)NCc4ccc(C(=O)O)cc4)O3)O2)O1` (stereo not drawn) [Compound 6a, 1-(benzoic acid)methylene Amidomonensine], the “Inhibition … (formation of merozoites)” value (Eimeria tenella; first series) was “did not appear to significantly inhibit”.

For `CCC12CCC(O1)C1(C)CCC3(CC(O)C(C)C(O3)C(C)C(OC)C(C)C(=O)OCC3(O)OC(C(C)CC3C)C3CC(C)C2O3)O1` (stereo not drawn) [Compound 7, Monensin Lactone], the “Concentration at which formation of merozoites was inhibited” value (Eimeria tenella; first series, at high concentrations (FIG. 30)) was “greater than or equal to 12.5 g/μL”.

With `CCC1(C2OC(C3OC(CO)(OC)C(C)CC3C)CC2C)CCC(C2(C)CCC3(CC(O)C(C)C(C(C)C(OC)C(C)C(=O)O)O3)O2)O1` (stereo not drawn) [Compound 8a, 25-Methoxymonensin] the “Cytotoxicity (summary in words)” value (MDBK cells) was “very low cytotoxicities”, the “Presence of schizonts/merozoites (microscopic observation, picture)” value (“Presence of schizonts/merozoites” for short) (Eimeria tenella) was “absence of schizonts and merozoites” and the “Presence of schizonts/merozoites” value (Eimeria tenella; listed as EV 02058) was “merozoites not present”. The “Activity in inhibiting development” value (Eimeria tenella) was “very high efficacy” and the “Activity towards the parasite Eimeria tenella (summary)” value (Eimeria tenella) was “significant activity”.

For `CCC1(C2OC(C3OC4(COC(=O)CO4)C(C)CC3C)CC2C)CCC(C2(C)CCC3(CC(O)C(C)C(C(C)C(OC)C(C)C(=O)O)O3)O2)O1` (stereo not drawn) [Compound 12, Oxo-dioxane Monensin], the “Cytotoxicity (summary in words)” value (MDBK cells) was “very low cytotoxicities”, the “Activity towards the parasite Eimeria tenella (summary)” value (Eimeria tenella) was “significant activity” and the “Development of Eimeria tenella in vitro” value (Eimeria tenella) was “completely inhibited”.

`CCC12CCC(O1)C1(C)CCC3(CC(OC)C(C)C(O3)C(C)C(OC)C(C)C(=O)OCC3(OC)OC(C(C)CC3C)C3CC(C)C2O3)O1` (stereo not drawn) [Compound 14a, 7,25-dimethoxylactone] was tested, and the “Presence of schizonts/merozoites” value (Eimeria tenella) was “merozoites present” and the “Activity in inhibiting development” value (Eimeria tenella) was “no significant activity”.

For `CCC12CCC(O1)C1(C)CCC3(CC(=O)C(C)C(O3)C(C)C(OC)C(C)C(=O)OCC(=O)C(C)CC(C)C(=O)C3CC(C)C2O3)O1` (stereo not drawn) [Compound 18, Triacetone Lactone], the “Inhibition of the parasite Eimeria tenella” value (Eimeria tenella) was “did not inhibit”.

For `CCC1(C2OC(C3OC(=O)C(C)CC3C)CC2C)CCC(C2(C)CCC3(CC(=O)C(C)C(C(C)C(OC)C(C)C(=O)O)O3)O2)O1` (stereo not drawn) [Compound 19, oxo-lactone Monensin], the “Cytotoxicity (summary in words)” value (MDBK cells) was “very low cytotoxicities”, the “Activity in inhibiting development” value (Eimeria tenella) was “significant efficacy” and the “Activity towards the parasite Eimeria tenella (summary)” value (Eimeria tenella) was “satisfactory and encouraging results”.

In the case of `CCC1(C2OC(C3OC4(COC(=O)CO4)C(C)CC3C)CC2C)CCC(C2(C)CCC3(CC(=O)C(C)C(C(C)C(OC)C(C)C(=O)O)O3)O2)O1` (stereo not drawn) [Compound 26, 7-oxo-monensin Oxodioxane], the “Inhibition of the parasite Eimeria tenella” value (Eimeria tenella) is reported as “did not inhibit”.

In the case of `CCC1(C2OC(C3OC(CO)(OCC(=O)O)C(C)CC3C)CC2C)CCC(C2(C)CCC3(CC(O)C(C)C(C(C)C(OC)C(C)C(=O)O)O3)O2)O1` (stereo not drawn) [Compound 27, O-25-glycolic Acid Monensin], the “Cytotoxicity (summary in words)” value (MDBK cells) is reported as “very low cytotoxicities”, the “Activity towards the parasite Eimeria tenella (summary)” value (Eimeria tenella) is reported as “significant activity” and the “Development of Eimeria tenella in vitro” value (Eimeria tenella) is reported as “completely inhibited”.

In the case of `CCC1(C2OC(C(O)C(C)CC(C)C(=O)O)CC2C)CCC(C2(C)CCC3(CC(=O)C(C)C(C(C)C(OC)C(C)C(=O)O)O3)O2)O1` (stereo not drawn) [Compound 31, 7-oxo, 21-hydroxy, 25-acid Monensin], the “Concentration at which significantly effective against the parasite” value (Eimeria tenella; third series (FIG. 31B)) is reported as “greater than 1.56 g/μL” and the “Inhibition of the parasite Eimeria tenella” value (Eimeria tenella) is reported as “did not inhibit”.
